These results are taken from patent US20240058299A1 (Humanetics Corporation, priority 2021, published 2024).

Structures are written as SMILES. “Also recorded” adds a separate entry of the source.

Data set [1] relates to NF-κB, pro-inflammatory cytokines (IL-1, IL-6, TNFα), pro-fibrotic proteins (TGFβ, MMP-2, MMP-9, LDH). To be noted: literature reports; cited from earlier work.
Data set [2] is described as follows: Solubility in pharmaceutically acceptable solvents. The data set is classed as physicochemical. To be noted: several pharmaceutically acceptable solvents. An excerpt:
The relative amount of genistein included in such a suspension can be varied to yield a formulation having a desired total content of genistein.

The subject of data set [3] is microHeart cells (human induced pluripotent stem cell-derived cardiac cells). The data set is described as follows: Survival of irradiated microHeart cells by trypan blue staining. The data set is classed as cell-based. The protocol: Cell survival was measured by trypan blue staining. The number of surviving cells 24 hours after irradiation is plotted. […] Cell survival was measured by trypan blue staining. The number of surviving cells 72 hours after irradiation is plotted.
Further studies using genistein were conducted in microHeart cells (StemoniX, Maple Grove, MN) exposed to different types of radiation. […] Cell survival was evaluated 24 hours after radiation exposure. […] Cell survival was evaluated 72 hours after radiation exposure. […] Moreover, since cell death causes the release of pro-inflammatory signals, protecting cells from death may reduce inflammation.

For the molecule `O=c1c(-c2ccc(O)cc2)coc2cc(O)cc(O)c12` [genistein, 5,7-dihydroxy-3-(4-hydroxyphenyl)-4H-chromen-4-one], in data set [1], the “expression of NF-κB, pro-inflammatory cytokines and pro-fibrotic proteins” value is “reduce expression”. Moreover, the solubility entry in data set [2] is on record as “low to virtually no solubility”. In addition, the “killing effect of γ-radiation (cell survival)” value in data set [3] (0.5 μM or 5 μM, 24 hours before 1 Gy γ-radiation, survival 24 hours after irradiation) was “the killing effect was mitigated by genistein; also recorded: Genistein treatment was radioprotective”. Moreover, the “killing effect of mixed field radiation (cell survival)” value in data set [3] (0.5 μM, 24 hours before 1 Gy mixed field radiation (˜32% neutron, −68% gamma), survival 72 hours after irradiation) is listed as “the killing effect was again mitigated by genistein; also recorded: genistein was radioprotective”.
